# How the values were obtained:
# Type in all cases: cell-based, mouse
# [1] = test system: Nos2 mRNA; test: Semi-quantitative real-time RT-PCR of Nos2 mRNA in primary astrocytes challenged with MPTP and TNF-α/IFN-γ
# Text: Primary Cell Isolation. Cortical astrocytes were isolated from day-1 old C57B1/6 or transgenic mouse pups according to procedures described previously (Aschner and Kimelberg, 1991), and purity confirmed through immunofluorescent staining using antibodies against GFAP and Iba1. Briefly, pups were euthanized by decapitation under isofluorane anesthesia and cortices (astrocytes) or striatum (neurons) rapidly dissected out, and meninges removed. Tissue was subject to digestion with Dispase (1.5 U/ml), and selection of astrocytes was performed by complete media change 24 hrs after plating to remove non-astroglial cell types by serum shock. This method routinely results in cultures that are approximately 99% pure astrocytes, with less than 1% contaminating microglial cells (Supplementary FIG. 1). Astrocyte cultures were maintained at 37° C. and 5% CO2 in minimum essential media supplemented with 10% heat-inactivated fetal bovine serum and a penicillin (0.001 mg/ml), streptomycin (0.002 mg/ml), and neomycin (0.001) antibiotic cocktail. Cell media was changed 24 hrs prior to all treatments. Primary neuronal cultures were seeded onto poly-L-lysine-coated 30 mm glass coverslips at 4×10^5 cells per well, and maintained in neurobasal media supplemented with 2 mM L-glutamine, a B27 supplement, and a penicillin (0.001 mg/ml), streptomycin (0.002 mg/ml), and neomycin (0.001) antibiotic cocktail. Neuronal culture media was changed 24 hours after isolation and every two days afterward, and culture purity confirmed through cell morphology and immunostaining against GAD65/67 (Supplementary FIG. 2). Neurons were used within two weeks of plating. All animal procedures were approved by the Colorado State University Institutional Animal Care and Use Committee, and were conducted in accordance with published NIH guidelines.
# RT and Real-Time RT-PCR. […] RNA was isolated using the RNEasy Mini kit (Qiagen, Valencia, Calif.), and purity and concentration were determined using a Nanodrop ND 1000 spectrophotometer (NanoDrop Technologies, Wilmington, Del.). Following purification, 1 ug of RNA was used as template for reverse transcriptase (RT) reactions using the iScript RT kit (BioRad, Hercules Calif.). The resulting cDNA was immediately profiled for Nos2 gene expression (forward: 5′-TCACGCTTGGGTCTTGTT-3′ (SEQ ID NO:1); reverse: 5′-[…] -3′3′ (SEQ ID NO:2)) using β-Actin as a housekeeping gene (forward: 5′-[…]-3′3′ (SEQ ID NO:3); reverse: 5′-CGCTCGTTGCCAATACTG-3′3′ (SEQ ID NO:4)) according to the 2^−ΔΔCT method (Livak and Schmittgen, 2001).
# [2] = test system: NF-κB; test: NF-κB EGFP reporter live-cell imaging in cis-NF-κB-EGFP transgenic astrocytes; settings: 10 μM, FIG. 4B
# Text: NF-κB reporter assays in cis-NF-κB^EGFP transgenic astrocytes and expression of mutant IκBα. To measure activation of NF-κB in live cell, astrocytes were isolated from a unique transgenic mouse expressing a reporter construct consisting of three HIV NF-κB consensus elements inserted 5′ to a minimal c-fos promoter that drives expression of enhanced green fluorescent protein (EGFP) (Magness et al., 2004) (Provided by Dr. Christian Jobin, University of North Carolina at Chapel Hill). NF-κB activity was determined by live-cell imaging using a Zeiss 20× air PlanApochromat objective using SlideBook v4.2 (Intelligent Imaging Innovations, Inc., Denver, Colo.). […] This approach was consistent between all replicates. At least four microscopic fields were examined per treatment group in each of at least three independent experiments, and reported as percent activated cells 8 hours following treatments. […]
# A wide array of inflammatory genes, including Nos2, are driven by the NF-κB signaling cascade. […] Real-time imaging of GFP fluorescence was performed in control transgenic astrocytes exposed to saline and in cells exposed to MPTP and TNF-α/IFN-γ in combination with DIM-C-pPhtBu (10 μM), rosiglitazone (10 μM), or DMSO. […]
# [3] = test system: primary striatal neurons co-cultured with activated astrocytes; test: Astrocyte-neuron co-culture: apoptosis of primary striatal neurons (caspase activity, Annexin V binding); settings: for Apoptosis in co-cultured striatal neurons (caspase activity and Annexin V-binding): astrocytes co-treated with 10 μM for 8 hours, six hours of co-culture, FIG. 6 C-D
# Protocol: Astrocyte Neuron Co-Culture. Cells were isolated as described above and astrocytes grown to confluence on permeable cell culture inserts (BD Biosciences, San Jose, Calif.) prior to treatment. Astrocytes were then treated with MPTP (10 μM), TNF-α (10 pg/ml) and IFN-γ (1 ng/ml) in the presence or absence of DIM-C-pPhtBu (10 μM), Rosiglitazone (10 μM) AMT (25 nM), or DMSO vehicle control for 8 hours. Media was then removed, and the astrocytes washed three times with sterile PBS to prevent carryover of treatment medium to the neurons, and the inserts were placed directly in each well over cultured neurons. Astrocyte-containing inserts were removed following six hours of co-culture, and neuronal caspase activity and phosphatidylserine translocation were measured by widefield fluorescence microscopy using the general cell permeable fluorescent caspase substrate rhodamine 110, bis-(L-aspartic acid amide) and an Annexin V Alexa Fluor 680 conjugate, respectively. Images were acquired using a Zeiss 20× air PlanApochromat objective and at least 10 microscopic fields were examined per treatment group over three independent experiments.
# The efficacy of DIM-C-pPhtBu in preventing astrocyte-dependent neuronal apoptosis was examined in FIG. 6. Astrocytes were grown to confluence in cell culture inserts that are permeable to small molecules but prevent direct cell-cell contact. Following treatment of astrocytes with MPTP and TNF-α/IFN-γ in the presence or absence of DIM-C-pPhtBu (10 μM), rosiglitazone (10 μM), the NOS2 inhibitor AMT (25 nM), or DMSO, astrocytes were washed with PBS and co-incubated directly above primary striatal neurons in neurobasal medium. Indices of neuronal apoptosis were then measured using live-cell fluorescence imaging of caspase activity (FIG. 6A) and Annexin V binding (FIG. 6B). […] The DMSO vehicle control had no suppressive effect.
# Differing letters denote statistical significance (p<0.05).
# [4] = 10 μM, astrocytes + MPTP, TNF-α/IFN-γ, FIG. 2B
# [5] = astrocytes + MPTP, TNF-α, IFN-γ, FIG. 7(B), concentration not given
SMILES,"Suppression of Nos2 mRNA [1, 4]","Lowest dose that suppressed Nos2 induction to levels statistically indistinguishable from saline-treated control astrocytes ([1]; primary astrocytes, MPTP + TNF-α/IFN-γ)","Suppression of MPTP and TNF-α/IFN-γ induced Nos2 mRNA expression, dose response ([1]; primary astrocytes, concentrations ranging from 1 to 100 μM, FIG. 2A)",Suppression of MPTP+TNF-α/IFN-γ induced increase in total cellular GFP fluorescence (NF-κB activity) [2],Apoptosis in co-cultured striatal neurons (caspase activity and Annexin V-binding) [3],"Suppression of Nos2 mRNA [1, 5]","Suppression of Nos2 mRNA, dose response ([1]; concentrations ranging from 0.1 to 3 μM, astrocytes + MPTP, TNF-α, IFN-γ, FIG. 7(A))","Annexin V binding in neurons increased by MPTP and cytokine treatment ([3]; 1 uM on astrocytes for 24 hrs, then 6 hrs with primary striatal neurons, FIG. 10(A))","Activation of astrocytes and subsequent neuronal apoptosis (quantitative Annexin V fluorescence) ([3]; 1 uM on astrocytes for 24 hrs, then 6 hrs with primary striatal neurons, FIG. 10(B))"
"CC(C)(C)c1ccc(C(c2c[nH]c3ccccc23)c2c[nH]c3ccccc23)cc1 [DIM-C-pPhtBu, 1,1-bis(3′-indolyl)-1-(p-t-butylphenyl)methane]",equivalent suppression of Nos2 to levels observed in saline-treated control astrocytes,10 µM,dose-dependently suppressed,completely suppressed,prevented,,,,
"COc1ccc(C(c2c[nH]c3ccccc23)c2c[nH]c3ccccc23)cc1 [DIM-C-pPhOCH3, 1,1-bis(3′-indolyl)-1-(p-methoxyphenyl)methane]",,,,,,equivalent suppression of Nos2 mRNA,dose-responsive suppression,inhibited,significantly reduced
"CN(CCOc1ccc(CC2SC(=O)NC2=O)cc1)c1ccccn1 (stereo not shown) [rosiglitazone, 5-((4-(2-(methyl-2-pyridinylamino)ethoxy)phenyl)methyl)-2,4-thiazolidinedione, reference compound]",equivalent suppression of Nos2 to levels observed in saline-treated control astrocytes,,,completely suppressed,prevented,equivalent suppression of Nos2 mRNA,,,

# — US8580843B2, “Use of diindolylmethane (DIM) compounds and derivatives as neuroprotective agents” (Colorado State University Research Foundation, priority 2008, dated 2013)
